This note sets out measurements from patent US7820624B2, “Peptide ligands” (ICH Productions Limited, priority 2003, dated 2010).

Series [1] concerns day 6 immature dendritic cells. Description: Maturation of adenovirus-transduced dendritic cells in response to LPS (marker flow cytometry). The series is classed as cell-based, human. Conditions: LPS 50 ng/ml; virus 100,000 particles per cell. As to the method:
Day 6 immature dendritic cells were infected with retargeted Ad or Ad5 at 100,000 particles per cell in complete medium for 24 hours, with E. coli 026:B6 lipopolysaccharide (LPS) added following 3 hours incubation at a concentration of 50 ng/ml. As controls, dendritic cells were either incubated in complete medium for 24 hours or matured by the addition of LPS in complete medium for 24 hours, In all samples IL-4 and GM-CSF were present in the complete medium at 25 ng/ml and 100 ng/ml respectively. Cells were then phenotyped by staining as follows: a minimum of 5×10^4 cells in a volume of less than 2 ml medium were added to the recommended amount of antibody and incubated for 20 min on ice. 2 ml of ice-cold PBS was added before centrifugation at 300×g for 5 min at 4° C. The supernatant was flicked off and the pellet resuspended in 300 μl ice cold PBS. Cells from each sample were stained with antibodies to HLA-DR, CD40, CD80, CD83, CD86 and isotype matched control antibodies. Where cell viability was also measured, […] of 7AAD was added immediately prior to analysis. Cells were analysed by flow cytometry using a Epics XL (Beckman Coulter, High Wycombe, UK.) and the EXPO32 analysis software (Beckman Coulter).
For orientation: In flow cytometry, cells or beads pass a laser one at a time.

The subject of series [2] is human monocyte-derived immature dendritic cells. Format: cell-based. Conditions: 100,000 viral particles/cell. From the text: Ad5 particles with the DC-binding peptides incorporated into the HI loop of the fibre protein were produced essentially as described previously ^12. Complementary oligonucleotides encoding the peptide sequences SHVKLNS [SEQ. ID. NO.:29] (5′ CC GGAAGCCACGTGAAGCTGAACAGCG 3′ [SEQ. ID. NO.:58] and 5′ CC GGCGCTGTTCAGCTTCACGTG GCTT 3′[SEQ. ID. NO.:59]) or APSNSTA [SEQ. ID. NO.:15] (5′ CC GGAGCCCCCAGCAACAGCACCGCCG 3′ [SEQ. ID. NO.:61] and 5′ CC GGCGGCGGTGCTGTTGCTGGG GGCT 3′ [SEQ. ID. NO.:62]) were synthesized (Operon Technologies, Alameda Calif. U.S.A.). The oligo pairs were then kinased, annealed, and ligated into the unique BspE1 site of pDV137 ^12, an expression construct encoding an Ad5 fibre protein with a double point mutant (KO1) which blocks CAR binding and a linker/restriction site in the HI loop, to create pDV178 (SHVKLNS) and pDV179 (APSNSTA). Following sequence confirmation, the plasmids were used to trans-complement the fibre-deleted vector Ad5.GFP.δF^18 by transient transfection into 293 cells as described ^19. Viral particles were purified by freeze/thaw lysis and CsCl gradient centrifugation and dialyzed into 40 mM TRIS-pH 8.1/0.9% NaCl/10% glycerol and stored at −80° C. Virus was quantified by protein assay (BioRad, Hercules Calif., U.S.A.) against BSA standards and using the relation 1 μg viral protein=4×10^9 viral particles.
Retargeted adenoviruses carrying a peptide A or B were used for the transduction experiments described below. Wild type adenovirus type 5 and type 5 adenovirus having a KO1 fibre, all supplied by Dr Dan von Seggern, and as described in Nicklin 2001 Mol Ther 2001 Dec.; 4(6):534-42), were used as controls.
(§1) Day 6 dendritic cells (see Example 1(v) above), or mouse bone marrow derived dendritic cells or mouse Sca1+ve stem cells, see (i) and (ii) above, were plated at 5×10^4 cells per well in a 48 well plate in 500 μl complete medium and allowed to settle for 3 hours at 37° C. Transductions were carried out in complete media, with virus being added at 100,000 viral particles/cell for 24 hours. Cells were harvested by scraping, spun down at 650 g (2000 rpm) for 5 min, resuspended in 300 μl PBS, and kept on ice before analysis. Viral transduction as determined by percentage of GFP positive cells was measured by FACS analysis. To measure percentage viability, 10 μl of 7-amino-actinomycin D (7AAD; Sigma, Poole, Dorset) was added immediately prior to analysis. Viral transduction of macrophages was carried out at 10,000 particles/cell in medium containing 2.5% FCS. For other cell types, cells were seeded overnight at 5×10^4 cells per well in 24-well plates in the appropriate media. Adenovirus was added in OptiMEM at 10,000 viral particles/cell, 1 ml per well in triplicate and incubated for 24 h at 37° C. Cells were then washed twice in PBS, trypsinised, triplicate wells pooled, spun down at 350×g for 5 min and resuspended in 300 μl PBS before analysis by flow cytometry where cell viability was to be measured, 10 μl 7AAD was added just prior to analysis.
Cells were pooled from three separate transduction experiments for the calculation of results.

For series [3], the system named is mouse Sca1-positive stem cells. Description: Adenoviral transduction of mouse Sca1+ve stem cells. Format: cell-based. As to the method:
Mouse bone marrow cells were isolated as above and Sca1+ve cells were isolated using MACs Sca1 microbeads (Miltenyi Biotec, Bisley, U.K.). These cells were plated at 7×10^4 cells/500 μl in RPMI with Glutamax-1 containing 30% FCS and penicillin/streptomycin and the following cytokines murine SCF (50 ng/ml; Preprotech, London, UK), IL-6 (20 ng/ml; Preprotech, London, UK) and Flt3-L (10 ng/ml) (R&D Systems, Oxford, U. K.).
as §1, with “To measure percentage viability, 10 μl of 7-amino-actinomycin D (7AAD; Sigma, Poole, Dorset) was added immediately prior to analysis. Viral transduction of macrophages was carried out at 10,000 particles/cell in medium containing 2.5% FCS. For other cell types, cells were seeded overnight at 5×10^4 cells per well in 24-well plates in the appropriate media. Adenovirus was added in OptiMEM at 10,000 viral particles/cell, 1 ml per well in triplicate and incubated for 24 h at 37° C.” left out

Another series has as its system 1HAEo- cells. In words: Adenoviral transduction of 1HAEo- cells. The series is classed as cell-based, human. Conditions: 10,000 particles per cell in OptiMEM. The protocol: as §1, with “For other cell types, cells were seeded overnight at 5×10^4 cells per well in 24-well plates in the appropriate media. Adenovirus was added in OptiMEM at 10,000 viral particles/cell, 1 ml per well in triplicate and incubated for 24 h at 37° C.” left out
(§2) For transduction of these other cell types, cells were seeded overnight at 5×10^4 cells per well in 24 well plates in the appropriate media. […] Where cell viability was to be measured, 10 μl 7-amino-actinomycin D (7AAD; Sigma, Poole, Dorset) was added just prior to analysis. […]

In a further series the test system is Neuro-2A cells. Description: Adenoviral transduction of Neuro-2A cells. The series is classed as cell-based, mouse. Conditions: 10,000 particles per cell in OptiMEM. As to the method:
as §1, with “For other cell types, cells were seeded overnight at 5×10^4 cells per well in 24-well plates in the appropriate media. Adenovirus was added in OptiMEM at 10,000 viral particles/cell, 1 ml per well in triplicate and incubated for 24 h at 37° C.” left out
as §2

The next series has as its system HMEC-1 cells. Description: Adenoviral transduction of HMEC-1 cells. Format: cell-based, human. Conditions: 10,000 particles per cell in OptiMEM. The protocol:
as §1, with “For other cell types, cells were seeded overnight at 5×10^4 cells per well in 24-well plates in the appropriate media. Adenovirus was added in OptiMEM at 10,000 viral particles/cell, 1 ml per well in triplicate and incubated for 24 h at 37° C.” left out
as §2

The subject of series [4] is primary mouse dendritic cells. In words: Adenoviral transduction of mouse dendritic cells. Format: cell-based. Conditions: bone marrow derived DCs. The protocol: Mouse dendritic cells were prepared from whole bone marrow flushed from the marrow cavities of the femur and tibia of 5-7 week old A/J mice and cultured in Hepes buffered RPMI+Glutamax (InVitrogen, Paisley, U. K.) supplemented with 10% FCS, penicillin/streptomycin and 20 ng/ml recombinant GM-CSF. Cytokines were added to the same concentration on day 3 and the dendritic cells isolated from the floating cell fraction by MACs CD11c microbeads (Miltenyi Biotec, Bisley, U. K.) on day 6.
as §1, with “To measure percentage viability, 10 μl of 7-amino-actinomycin D (7AAD; Sigma, Poole, Dorset) was added immediately prior to analysis. Viral transduction of macrophages was carried out at 10,000 particles/cell in medium containing 2.5% FCS. For other cell types, cells were seeded overnight at 5×10^4 cells per well in 24-well plates in the appropriate media. Adenovirus was added in OptiMEM at 10,000 viral particles/cell, 1 ml per well in triplicate and incubated for 24 h at 37° C.” left out

A further series relates to HepG2 cells. In words: Adenoviral transduction of HepG2 cells. The series is classed as cell-based, human. Conditions: 10,000 particles per cell in OptiMEM. The protocol: as §1, with “For other cell types, cells were seeded overnight at 5×10^4 cells per well in 24-well plates in the appropriate media. Adenovirus was added in OptiMEM at 10,000 viral particles/cell, 1 ml per well in triplicate and incubated for 24 h at 37° C.” left out
as §2

Series [5] deals with human monocyte-derived primary macrophages. In words: Adenoviral transduction of primary macrophages. The series is classed as cell-based. Conditions: 10,000 viral particles/cell in 2.5% serum. As to the method: as §1
10 mls of peripheral blood were diluted 1:1 with HBSS then layered on Lymphoprep (Nycomed), spun at 750 g for 30 min and purified […] were isolated from the interface. Excess Lymphoprep was removed by spinning cells down at 250 g for 10 min and any platelets present were removed by washing in HBSS twice, spinning the cells at 1200 rpm for 10 min each time. Monocytes were then isolated using MACs CD14 microbeads as described in the manufacturer's protocol. The mononuclear cells were plated into a […] flask in 10% FCS, RPMI for 1-2 hours (1 flask per 10 ml blood) before removing the supernatant and adding fresh 10% FCS, RPMI+10 ng/ml MCSF (macrophage colony stimulating factor). Half the medium was replaced with fresh 10% FCS, RPMI+MCSF (10 ng/ml) after 48 hours and the cells were used at day 6, harvesting by scraping the cells from the well.
Viral transduction was carried out at 10,000 particles/cell in medium containing 2.5% FCS. Viral transduction as determined by percentage of GFP positive cells was measured by FACS analysis. Cells were pooled from three separate transduction experiments for the calculation of results.

With “APSNSTA (Synthetic peptide binding to dendritic cells)”, in series [1], the CD40 positive cells was determined as 9.8%. In series [1], this substance came in with a CD80 positive cells of 10.7%. For the same substance, the CD83 positive cells in series [1] was found to be 18.0%. The same substance returned a CD86 positive cells in [1] of 96.7%. The substance further came in with an HLA-DR positive cells in series [1] of 72.9%. The “Transduction (% GFP positive cells), donor A” value in [2] (complete medium, 24 hours, donor A) was 65.1%. The “Transduction (% GFP positive cells), donor B” value in [2] (complete medium, 24 hours, donor B) came out at 78.9%. For the same substance, in series [2] (donor A, 7AAD), the “Percentage cell death, donor A” value is recorded as “(6.6) %”. In addition, the “Percentage cell death, donor B” value in series [2] (donor B, 7AAD) was “(11.6) %”. For the same substance, the values for the Transduction efficiency in [3] and in series [4] were 5.4% and 54.1%, respectively. Also, the “Transduction, % cells transduced” value in the series on 1HAEo- cells came out at 79%; in the series on HMEC-1 cells it was 94.2%; in the series with HepG2 cells, 79.7%; in [5], 34.6%; in series [5] (listed as B), 34.6%. The “Transduction, % GFP-positive cells” value in the series on Neuro-2A cells is 53.7%.
